Earlier results, collected in patent US20090062406A1, “Aqueous concentrates of isethionate, taurate and betaine” (Clariant International Ltd., priority 2007, published 2009).

Settings: 20° C.

sodium methyl cocoyl taurate
Solubility in water: 10000 µg/mL
